Data: US11925612B2, “Bactericidal and virucidal pharmaceutical composition” (Quimica Luar SRL, priority 2015, dated 2024)
Like-named read-outs stand apart in the source and are kept apart here.

Columns and labels:
P. aeruginosa = experiment: Bactericidal test: CFU count after incubation in PBS buffer; type: cell-based, Pseudomonas aeruginosa
[1] = system: artificial biofilm of P. aeruginosa; experiment: Antimicrobial effect on artificial biofilm (2% alginate solution); type: cell-based, Pseudomonas aeruginosa; details: Biofilm (2% alginate) + ionic strength (1 M NaCl), 4 hours at 37° C., control 2,000,000, Example 21
Protocol: Work consisted of incubating bacterial populations of a known load in terms of CFU/mL with the compounds mentioned in different molar concentrations. In vitro test batteries were organized at different doses or concentrations and in 1.5 mL Eppendorf tubes without the addition of culture medium. To this purpose, a PBS 100 mM phosphate buffer was used to maintain physiological conditions throughout the period of each test at 37° C. […] Each plate was added with 5 uL of a solution of 2,3,5-metabolic dye triphenyltetrazolium of chloride (TTC) 1% to enhance the contrast of colonies. Plates were incubated in inverted position, in a culture stove for 24-48 hours at 37° C. and subsequently the direct count was done, adjusted by dilution factors and seeding to report results in terms of CFU/mL. […] Treatments lasted 4 hours at 37° C.

Burkhordelia cepacia = type: cell-based; details: 4 h incubation at 37° C., control 130,000, Example 10
Protocol: In this case, tests were run on a non-nutritive liquid carrier (buffer solution) wherein the antimicrobial agent is mixed with quantified inocula of pure bacterial cultures. After different incubation times, the material is seeded on agar plates to perform quantification assays on the number of bacterias surviving the treatment.
When the time for each assay finished, aliquots of 100 uL and decimal dilutions of each tube which were seeded on petri dishes for the direct count of colony forming units (CFU) in Mueller Hinton agar (MHA), using pour-plating or spread-plating standard methods.
During testing, the medium was stored in thermostatic bath between 45-50° C. because the seeding technique requires imbibing and integrating bacteria in the medium.

[2] = solubilised in water; cited from earlier work
[3] = system: BVDV bovine diarrhea virus; type: cell-based; details: Ibuprofen at 50 mM, virus incubated 60 minutes at 37° C.
[4] = system: Herpes Simplex 1 virus (HSV); type: cell-based; details: Ibuprofen at 50 mM, virus incubated 60 minutes at 37° C.
[5] = system: vesicular stomatitis virus (VSV); type: cell-based; details: Ibuprofen at 50 mM, virus incubated 60 minutes at 37° C.
[6] = system: Rubella virus strain (MV); type: cell-based; details: Ibuprofen at 50 mM, virus incubated 60 minutes at 37° C.

In the case of `[Cl-].[Na+]` [NaCl], the “P. aeruginosa (UFC/mL ± 10)” value (P. aeruginosa; NaCl 0.01 M, 4 hours at 37° C., control 2,000,000, Example 11) is reported as 2,000,000 UFC/mL, the “P. aeruginosa (UFC/mL ± 10)” value (P. aeruginosa; NaCl 0.025 M, 4 hours at 37° C., control 2,000,000, Example 11) is reported as 2,000,000 UFC/mL and the “P. aeruginosa (UFC/mL ± 10)” value (P. aeruginosa; NaCl 0.1 M, 4 hours at 37° C., control 2,000,000, Example 11) is reported as 2,000,000 UFC/mL. For the same molecule, the “P. aeruginosa (UFC/mL ± 10)” value (P. aeruginosa; NaCl 0.25 M, 4 hours at 37° C., control 2,000,000, Example 11) was 1,800,000 UFC/mL, the “P. aeruginosa (UFC/mL ± 10)” value (P. aeruginosa; NaCl 0.5 M (line between 0.025 and 0.1), 4 hours at 37° C., control 2,000,000, Example 11) was 2,000,000 UFC/mL and the “P. aeruginosa (UFC/mL ± 10)” value (P. aeruginosa; NaCl 0.5 M (line between 0.25 and 1), 4 hours at 37° C., control 2,000,000, Example 11) was 1,600,000 UFC/mL. The “P. aeruginosa (UFC/mL ± 10)” value (P. aeruginosa; NaCl 1 M, 4 hours at 37° C., control 2,000,000, Example 11) was 1,000,000 UFC/mL.

For `CC(C)Cc1ccc(C(C)C(=O)O)cc1` (centres unmarked) [IBU-H, PROTONATED IBUPROFEN], the “P. aeruginosa (UFC/mL ± 10)” value (P. aeruginosa; IBU 10 mM, 4 h at 37° C., control 1,700,000, Example 4) was 480,000 UFC/mL, the “P. aeruginosa (UFC/mL ± 10)” value (P. aeruginosa; IBU 20 mM, 4 h at 37° C., control 1,700,000, Example 4) was 200,000 UFC/mL and the “P. aeruginosa (UFC/mL ± 10)” value (P. aeruginosa; IBU 50 mM, 4 h at 37° C., control 1,700,000, Example 4) was 1000 UFC/mL. The “P. aeruginosa (UFC/mL ± 10)” value (P. aeruginosa; IBU 100 mM, 4 h at 37° C., control 1,700,000, Example 4) was 10 UFC/mL.

For `NC[C@H]1O[C@H](O[C@H]2[C@H](O)[C@@H](O[C@H]3O[C@H](CO)[C@@H](O)[C@H](N)[C@H]3O)[C@H](N)C[C@@H]2N)[C@H](N)C[C@@H]1O` [Tobramycin, tobramycin], the “P. aeruginosa (UFC/mL ± 10)” value (P. aeruginosa; Tobramycin 0.25 mM with ClNa (1M), 4 h at 37° C., control 1,000,000, Example 20) was 400,000 UFC/mL, the “P. aeruginosa (UFC/mL ± 10)” value (P. aeruginosa; Tobramycin 1 mM with ClNa (1M), 4 h at 37° C., control 1,000,000, Example 20) was 10 UFC/mL and the “P. aeruginosa (UFC/mL ± 10)” value (P. aeruginosa; Tobramycin 1 mM, 1 hour, 37° C., control 2,000,000, Example 19) was 1,000,000 UFC/mL. For the same molecule, the “P. aeruginosa (UFC/mL ± 10)” value (P. aeruginosa; Tobramycin 1 mM, 4 hours, 37° C., control 2,000,000, Example 19) was 30,000 UFC/mL, the “P. aeruginosa (UFC/mL ± 10)” value (P. aeruginosa; Tobramycin 1 mM, O.N., 37° C., control 2,000,000, Example 19) was 30,000 UFC/mL and the “P. aeruginosa (UFC/mL ± 10)” value (P. aeruginosa; Tobramycin 2.5 mM, 1 hour, 37° C., control 2,000,000, Example 19) was 60,000 UFC/mL. The “P. aeruginosa (UFC/mL ± 10)” value (P. aeruginosa; Tobramycin 2.5 mM, 4 hours, 37° C., control 2,000,000, Example 19) was 20,000 UFC/mL, the “P. aeruginosa (UFC/mL ± 10)” value (P. aeruginosa; Tobramycin 2.5 mM, O.N., 37° C., control 2,000,000, Example 19) was 10 UFC/mL and the “P. aeruginosa (UFC/mL ± 10)” value (P. aeruginosa; Tobramycin 5 mM with ClNa (1M), 4 h at 37° C., control 1,000,000, Example 20) was 10 UFC/mL. The “P. aeruginosa (UFC/mL ± 10)” value (P. aeruginosa; Tobramycin 5 mM, 1 hour, 37° C., control 2,000,000, Example 19) was 30,000 UFC/mL, the “P. aeruginosa (UFC/mL ± 10)” value (P. aeruginosa; Tobramycin 5 mM, 4 hours, 37° C., control 2,000,000, Example 19) was 1,000 UFC/mL and the “P. aeruginosa (UFC/mL ± 10)” value (P. aeruginosa; Tobramycin 5 mM, O.N., 37° C., control 2,000,000, Example 19) was 10 UFC/mL. The “P. aeruginosa (UFC/mL ± 10)” value (P. aeruginosa; Tobramycin 10 mM with ClNa (1M), 4 h at 37° C., control 1,000,000, Example 20) was 10 UFC/mL, the “P. aeruginosa (UFC/mL ± 10)” value (P. aeruginosa; Tobramycin 10 mM, 1 hour, 37° C., control 2,000,000, Example 19) was 1,000 UFC/mL and the “P. aeruginosa (UFC/mL ± 10)” value (P. aeruginosa; Tobramycin 10 mM, 4 hours, 37° C., control 2,000,000, Example 19) was 10 UFC/mL. The “P. aeruginosa (UFC/mL ± 10)” value (P. aeruginosa; Tobramycin 10 mM, O.N., 37° C., control 2,000,000, Example 19) was 10 UFC/mL, the “P. aeruginosa (UFC/mL ± 10)” value ([1]; 5 mM) was 10 UFC/mL and the “P. aeruginosa (UFC/mL ± 10)” value ([1]; 10 mM) was 10 UFC/mL.

For `COc1ccc2cc([C@H](C)C(=O)O)ccc2c1` [Naproxen], the “B. cepacia (UFC/mL ± 10)” value (Burkhordelia cepacia; Naproxen 10 mM) was 125,000 UFC/mL, the “B. cepacia (UFC/mL ± 10)” value (Burkhordelia cepacia; Naproxen 25 mM) was 38,000 UFC/mL and the “B. cepacia (UFC/mL ± 10)” value (Burkhordelia cepacia; Naproxen 50 mM) was 31,000 UFC/mL. For the same molecule, the “B. cepacia (UFC/mL ± 10)” value (Burkhordelia cepacia; Naproxen 100 mM) was 1,300 UFC/mL.

In the case of `CC(C)Cc1ccc(C(C)C(=O)O)cc1` (centres unmarked) [Ibuprofen, ibuprofen], the “critical micelle concentration (CMC)” value [2] is listed as “about 180 mM”, the “Reduction of viral level” value [3] is listed as >6.5 TCID50 mL-1 and the “Reduction of viral level” value [4] is listed as >6.9 TCID50 mL-1. The “Reduction of viral level” value [5] was >7.7 TCID50 mL-1 and the “Reduction of viral level” value [6] was >5.0 TCID50 mL-1.
